Assay results from patent US6429191B1, “Treatment of hearing impairments” (Genentech, Inc., priority 1996, dated 2002).
Where two headings read alike, the source gives them in different places.

Legend:
[1] = tested on: hair cells in cochlear explants; test: Protective effects in cochlear explant cultures co-treated with ototoxins, hair cell count; assay type: cell-based, rat; conditions: growth factor added together with ototoxin; data not shown
Procedure: (§1) FIGS. 9A and 9B depict quantitation of protective effects of NT-4/5 on SGNs (FIG. 9A) and hair cells (FIG. 9B). […] The same experimental procedures were performed as in FIGS. 6A and 6B. The error bars are SEM and ** indicate that as compared to the cultures containing an ototoxin alone, p<0.001. “Con” indicates control culture.
(§2) The protective effect of neurotrophins against ototoxicity was determined in the organotypic cultures of postnatal cochlear explants described in the Examples above. […] A human recombinant neurotrophin (Genentech, Inc.) or other growth factors, alone or in combination, was added to the culture at the same time the ototoxin was added.
(§3) Two days after treatment with ototoxins or co-treatment with ototoxins and neurotrophins (or other growth factors), the cochlear explant cultures were fixed in 4% paraformaldehyde in 0.1 M phosphate buffer (pH 7.4) for 30 min, washed in PBS, and subjected to double histochemical staining of the cochlear explant cultures. After incubation with the monoclonal antibody N52 against neurofilament protein (200 kd) in 1% Triton X100 containing 3% normal goat serum (“NGS”) for 2 days at 4° C., the explants were incubated with a Texas red-conjugated goat anti-mouse secondary antibody (1:70; Cappel) at room temperature for 40 min. The preparations were then stained with FITC-conjugated phalloidin (0.5 μg/ml; Sigma) for 45 min, washed in PBS and mounted in Fluoromount-G (Southern Biotechnology Associates, Birmingham, Ala.) which contains an anti-fading agent.

[2] = tested on: SGNs in cochlear explants; test: Protective effects in cochlear explant cultures co-treated with ototoxins, SGN peripheral axon count; assay type: cell-based, rat; conditions: for protective effects on SGNs against ototoxins: growth factor added together with ototoxin, data not shown; for neuroprotection of SGNs against sodium salicylate and gentamicin: 20 ng/ml neurotrophin, sodium salicylate 5 mM or gentamicin 3 mM
Procedure: as §1
FIG. 10 depicts quantitation of neuroprotection of different neurotrophins against sodium salicylate (Sal) and gentamicin (Gent). […] Sodium salicylate (5 mM) or gentamicin (3 mM) was added either alone or in combination with one of the neurotrophins (20 ng/ml) to 2-day cultures and the cultures were kept for 2 more days. The same experimental procedures were performed as in FIGS. 6A and 6B. […] The error bars are SEM and ** indicate that as compared to the cultures containing an ototoxin alone, p<0.001.
as §2, §3

[3] = tested on: hair cells in cochlear explants
Procedure: (§4) Cochlear explants were prepared from P3 rats, embedded and cultured in 3-D collagen gels. Ototoxins were added at various concentrations to 2-day cultures for 2 more days. After the preparations were processed for double histochemistry with N52 and phalloidin, they were examined under Zeiss Axiophot epifluorescent microscope. For each culture, SGN peripheral axons and hair cells were counted from 3-4 randomly selected fields in the middle turn of each culture. Data were collected from 6 or more cultures for each of the experimental groups. Two-tailed, unpaired t-test was used for statistical analysis. […] The error bars are SEM and double asterisks (**) indicate significant differences between experimental and control cultures (p<0.001).
(§5) An organotype cochlear explant culture that utilizes a 3-D collagen matrix cultures and maintains its normal, in vivo architecture. Cochleae were dissected from postnatal day 3 (P3) Wistar rats. After spiral ligament and stria vascularis tissues were removed, the remaining cochlear tissue containing the spiral ganglion and organ of Corti was cut into 3 pieces according to the basal, middle and apical turns. The explants were then embedded in a three-dimensional (“3-D”) collagen matrix of a droplet (20 μl) of freshly made collagen gel which was placed on the bottom of a 35 mm Nunc tissue culture dish, modified from what described previously (Gao et al., 1991) as follows. Rat tail collagen (type I, Collaborative Research) was mixed with 10× BME medium and 2% sodium carbonate in a ratio of 10:1:1 and placed on ice just before use. The collagen matrix containing the cochlear explants were incubated at 37° C. for 5-10 min until it gelled. The matrix was then cultured in defined serum-free medium using sufficient medium to cover the explants (2 ml of serum-free medium (BME plus serum-free supplement (Sigma 1-1884), 1% BSA, 2 mM glutamine, and 5 mg/ml glucose; containing no antibiotics). The culture medium was changed every other day thereafter.
(§6) While the neurofilament antibody (Texas red-mediated) labeled the somata and peripheral axons of SGNs, the phalloidin-FITC conjugate stained the stereocillia bundles of hair cells. Three cultures per experimental paradigm were studied in each individual experiment. Three or more separate repetitions of the experiment were conducted to validate the ototoxic effect.
(§7) As the density of the radial peripheral axons of SGNs appeared to be a reliable index of the number of surviving SGNs, the number of the peripheral axons of SGNs from a given length (100 μm) in the middle turn of the cochlea was counted for different experimental groups and plotted in FIG. 6A. Phalloidin-labeled hair cells were also counted in the same way (FIG. 6B).
(§8) Quantitative analysis of the numbers of peripheral axons of SGNs and hair cells in the cochlear explants were performed. The N52 and phalloidin double-labeled cochlear explants were examined under a Zeiss Axiophot epifluorescent microscope. As the density of radial peripheral axons of SGNs reflects the number of surviving SGNs, the number of these axons was counted using a grid ocular reticule covering a distance of 100 μm in the middle turns only. The surviving hair cells were counted in a similar manner. […] For each culture, SGN peripheral axons and hair cells were counted from 3-4 randomly selected fields in the middle turn of each culture.

[4] = tested on: SGNs in cochlear explants
Procedure: as §4, §5, §6, §7, §8

[5] = target: trkC receptor (Homo sapiens, UniProt Q16288); conditions: cited from earlier work
Chain of trkC receptor (Q16288 32-839): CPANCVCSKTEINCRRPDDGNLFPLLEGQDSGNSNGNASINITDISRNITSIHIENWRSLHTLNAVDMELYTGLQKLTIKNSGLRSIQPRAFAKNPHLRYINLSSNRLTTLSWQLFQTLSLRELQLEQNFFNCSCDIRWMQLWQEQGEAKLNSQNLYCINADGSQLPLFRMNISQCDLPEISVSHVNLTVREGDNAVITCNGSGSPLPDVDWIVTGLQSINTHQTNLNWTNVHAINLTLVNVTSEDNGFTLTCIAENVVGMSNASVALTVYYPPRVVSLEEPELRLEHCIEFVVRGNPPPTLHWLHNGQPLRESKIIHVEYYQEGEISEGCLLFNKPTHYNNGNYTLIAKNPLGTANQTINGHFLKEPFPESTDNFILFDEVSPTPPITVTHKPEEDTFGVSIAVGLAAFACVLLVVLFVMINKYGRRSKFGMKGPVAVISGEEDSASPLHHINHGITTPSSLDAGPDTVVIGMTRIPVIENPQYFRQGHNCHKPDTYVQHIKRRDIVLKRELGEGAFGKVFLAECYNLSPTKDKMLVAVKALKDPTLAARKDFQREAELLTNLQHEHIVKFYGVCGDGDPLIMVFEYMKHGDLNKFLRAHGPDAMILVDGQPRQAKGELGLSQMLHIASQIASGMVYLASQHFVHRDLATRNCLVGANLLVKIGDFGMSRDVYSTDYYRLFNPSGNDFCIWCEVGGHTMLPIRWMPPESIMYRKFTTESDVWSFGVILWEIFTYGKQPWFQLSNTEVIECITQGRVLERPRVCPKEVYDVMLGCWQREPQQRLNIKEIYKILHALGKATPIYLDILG

[6] = tested on: spiral ganglion neurons (SGNs); test: Survival of dissociated spiral ganglion neurons in serum-free culture; assay type: cell-based, rat; conditions: for survival-promoting effect on SGNs: P5 rat SGNs, 2 days, serum-free medium, neurotrophins 0.1-50 ng/ml
Procedure: FIG. 1 is a histogram depicting the effects of NT-4/5 on SGN survival. SGNs were prepared from P5 rats, plated and kept for 2 days in serum-free medium in the absence or presence of NT-4/5 at different concentrations. Viable SGNs were identified by labeling with a neurofilament monoclonal antibody (N52), viewed under a Zeiss Axiophot microscope, and counted using a grid ocular reticule covering an area of […]. For each culture, about 10 randomly selected fields were counted. Data were collected from 3 to 5 cultures and normalized as a percentage of the number of viable neurons in the control cultures in each of the experiments. The error bars represent SEM.
FIG. 2 is a histogram depicting the effects of different neurotrophins on SGN survival. SGNs were prepared from P5 rats and maintained for 2 days in serum-free medium without or with different neurotrophins at different concentrations. Quantitation of viable SGNs was made in the same way as in FIG. 1 and the error bars are SEM. […] Difference between NT-3 and NT-4/5 or BDNF was very significant at all doses (P<0.001). No statistical difference was found between NT-4/5 and BDNF except the dose of 0.1 ng/ml (P<0.01).
Identical results (not shown) were also obtained with a different neuronal marker, a monoclonal antibody 3A10 (Furley et al., 1990). SGNs were dissociated from postnatal day 5 (P5) rat cochleae and plated in defined serum-free medium. […] The enzyme was inactivated with a mixture of 0.005% soybean trypsin inhibitor (Sigma) and 0.005% DNase (Worthington) before trituration with 0.05% DNase in Eagle's Basal Medium (“BME”). The dissociated cells were preplated on a 35 mm untreated tissue culture dish for 25 min to enrich the neuronal population. Under these experimental procedures, about 10% of the cell population were spiral ganglion neurons (“SGNs”) as determined by immunocytochemistry with a monoclonal antibody (N52; Boehringer) against neurofilaments (200 kd; Boehringer). […] Cells were plated at a density of 80,000/well. In control cultures about 75% of SGNs died after 2 days, presumably due to a lack of growth factors.

[7] = cited from earlier work
[8] = tested on: spiral ganglion neurons (SGNs); test: Neurotrophin protection of dissociated SGNs against cisplatin neurotoxicity; assay type: cell-based, rat; conditions: for protective effects against cisplatin neurotoxicity / protection of SGNs compared with cultures containing cisplatin alone: 10 ng/ml neurotrophin; for protective effects against cisplatin neurotoxicity: cisplatin 1, 2 or 4 μg/ml; for protection of SGNs compared with cultures containing cisplatin alone: 4 μg/ml cisplatin
Description: Quantitation of viable SGNs was done in the same way as in FIG. 1. The error bars stand for SEM. […] While no difference was found between cultures containing NT-4/5 and cultures containing BDNF, the difference between cultures containing NT-3 and cultures containing NT-4/5 or BDNF was statistically very significant (P<0.001).

[9] = target: trkB receptor (Homo sapiens, UniProt Q16620); conditions: naturally occurring NGF vs BDNF; cited from earlier work
Chain of trkB receptor (Q16620 32-822): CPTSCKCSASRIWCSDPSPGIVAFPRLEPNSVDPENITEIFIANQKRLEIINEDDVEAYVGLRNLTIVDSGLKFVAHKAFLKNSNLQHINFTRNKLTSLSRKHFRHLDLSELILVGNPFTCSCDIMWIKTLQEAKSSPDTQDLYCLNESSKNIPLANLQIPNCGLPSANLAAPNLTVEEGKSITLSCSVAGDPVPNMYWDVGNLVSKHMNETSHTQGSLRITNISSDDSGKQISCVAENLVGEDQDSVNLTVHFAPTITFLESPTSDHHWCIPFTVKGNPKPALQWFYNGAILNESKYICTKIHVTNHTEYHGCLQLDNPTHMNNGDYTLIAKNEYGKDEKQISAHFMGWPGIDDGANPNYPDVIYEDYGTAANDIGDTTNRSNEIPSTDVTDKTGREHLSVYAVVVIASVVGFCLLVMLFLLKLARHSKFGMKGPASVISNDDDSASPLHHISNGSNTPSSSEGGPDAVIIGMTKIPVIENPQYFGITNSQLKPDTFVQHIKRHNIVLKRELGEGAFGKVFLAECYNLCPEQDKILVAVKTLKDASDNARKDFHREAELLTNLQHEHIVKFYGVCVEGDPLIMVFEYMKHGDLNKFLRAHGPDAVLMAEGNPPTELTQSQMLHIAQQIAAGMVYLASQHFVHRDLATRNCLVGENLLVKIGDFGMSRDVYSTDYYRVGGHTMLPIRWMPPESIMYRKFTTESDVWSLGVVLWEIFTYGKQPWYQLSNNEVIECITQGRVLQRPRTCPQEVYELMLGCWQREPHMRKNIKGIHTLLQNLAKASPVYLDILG

transforming growth factor-α [TGF-α]
protective effects on hair cells against ototoxins [1]: did not show detectable protective effects
protective effects on SGNs against ototoxins [2]: did not show detectable protective effects

insulin-like growth factor-1 [IGF-1]
protective effects on hair cells against ototoxins [1]: did not show detectable protective effects
protective effects on SGNs against ototoxins [2]: did not show detectable protective effects

gentamicin
effect on hair cells ([3]; 0.01 to 0.5 mM): a substantial number of hair cells in the cochlea were killed
effect on hair cells ([3]; 1-5 mM): eliminated virtually all hair cells
SGNs remaining intact ([4]; 5 mM): approximately 40%
damage to SGNs ([4]; 0.01 to 0.5 mM): not significantly damaged
damage to SGNs ([4]; 1-5 mM): started to induce SGN degeneration
doses at which damage to SGNs starts ([4]; figure legend FIG. 7A): higher than 1 mM

R31A: NT-3 with mutation at position R31 to alanine
trkC binding of NT-3 mutant ([5]; compared with NT-3): increased trkC binding

transforming growth factor-β1 [TGF-β1]
protective effects on hair cells against ototoxins [1]: did not show detectable protective effects
survival-promoting effect on SGNs [6]: No survival-promoting effects
protective effects on SGNs against ototoxins [2]: did not show detectable protective effects

basic fibroblast growth factor [βFGF]
protective effects on hair cells against ototoxins [1]: did not show detectable protective effects
survival-promoting effect on SGNs [6]: No survival-promoting effects
protective effects on SGNs against ototoxins [2]: did not show detectable protective effects

[H]/N=C(/N)N[C@H]1[C@H](O)[C@@H](O)[C@H](O[C@@H]2O[C@@H](C)[C@](O)(C=O)[C@H]2O[C@@H]2O[C@@H](CO)[C@H](O)[C@@H](O)[C@@H]2NC)[C@@H](N/C(N)=N\[H])[C@@H]1O [streptomycin]
patients developing measurable hearing loss ([7]; 1 gram per day for greater than 1 week): 4 to 15%
incidence of vestibular impairment ([7]; 1 gram per day): 25%
patients displaying some vestibular impairment ([7]; 2 grams daily for 60 to 120 days): ~75%

nerve growth factor [NGF]
survival-promoting effect on SGNs [6]: no detectable effects
KD at trkC relative to NT-3 (fold lower) ([5]; naturally occurring NGF vs NT-3): 500-1000 fold
neuroprotection of SGNs against sodium salicylate and gentamicin [2]: did not show any detectable protection
protective effects against cisplatin neurotoxicity [8]: did not show any protective effects
KD at trkB relative to BDNF (fold lower) [9]: 500-1000 fold

neurotrophin-3 [NT-3]
survival-promoting effect on SGNs [6]: significant survival-promoting effect
potency on SGN survival compared with other neurotrophins ([6]; all doses (0.1-50 ng/ml)): less potent than NT-4/5 or BDNF
neuroprotection of SGNs against sodium salicylate and gentamicin [2]: protective effects on SGNs
potency of protection against cisplatin compared with other neurotrophins ([8]; 10 ng/ml): less potent compared to NT-4/5 or BDNF
protection of SGNs compared with cultures containing cisplatin alone [8]: very significant protecting effects
protective effects against cisplatin neurotoxicity [8]: significant protective effects

epidermal growth factor [EGF, growth factor (Collaborative Research)]
protective effects on hair cells against ototoxins [1]: did not show detectable protective effects
survival-promoting effect on SGNs [6]: No survival-promoting effects
protective effects on SGNs against ototoxins [2]: did not show detectable protective effects

brain-derived neurotrophic factor [BDNF]
survival-promoting effect on SGNs [6]: very significant survival-promoting effects
potency on SGN survival compared with other neurotrophins ([6]; concentrations from 1-50 ng/ml): equal in potency to NT-4/5
neuroprotection of SGNs against sodium salicylate and gentamicin [2]: protective effects on SGNs
protection of SGNs compared with cultures containing cisplatin alone [8]: very significant protecting effects
protective effects against cisplatin neurotoxicity [8]: Equivalent protective effects

O=C([O-])c1ccccc1O.[Na+] [sodium salicylate]
effect on hair cells ([3]; 5 mM): all hair cells remained intact
hair cell loss ([3]; 10 mM): no significant hair cell loss
effect on SGNs and their peripheral axons ([4]; 5 mM, added to 2-day cultures for 2 more days): massive death of SGNs and degeneration of their peripheral axons
dosage which starts to induce significant damage to SGNs ([4]; cochlear explant cultures): 3 mM
SGN degeneration, dose dependence ([4]; various concentrations): dose dependent

platelet-derived growth factor [PDGF]
protective effects on hair cells against ototoxins [1]: did not show detectable protective effects
protective effects on SGNs against ototoxins [2]: did not show detectable protective effects
